How the values were obtained:
[1] = target: T1, Alpha-2A adrenergic receptor (Rattus norvegicus) (UniProt P22909); assay: Displacement of [3H]RX 821002 from Adrenergic alpha-2a receptor in rat cerebral cortex cells at 1 uM; format: cell-based
T1 sequence (whole entry): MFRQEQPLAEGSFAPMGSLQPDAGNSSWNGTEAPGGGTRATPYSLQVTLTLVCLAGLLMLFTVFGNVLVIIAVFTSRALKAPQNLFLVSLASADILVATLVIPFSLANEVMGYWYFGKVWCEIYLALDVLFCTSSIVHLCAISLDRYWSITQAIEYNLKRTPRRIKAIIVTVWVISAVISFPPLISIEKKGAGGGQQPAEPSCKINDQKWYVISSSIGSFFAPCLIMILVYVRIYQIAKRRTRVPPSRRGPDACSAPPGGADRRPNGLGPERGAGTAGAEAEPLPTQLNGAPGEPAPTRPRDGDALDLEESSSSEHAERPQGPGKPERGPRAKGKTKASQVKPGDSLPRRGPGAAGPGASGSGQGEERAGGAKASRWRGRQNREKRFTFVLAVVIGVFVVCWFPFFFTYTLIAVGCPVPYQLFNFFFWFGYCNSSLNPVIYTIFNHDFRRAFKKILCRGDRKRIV

[2] = target: T2, 5-hydroxytryptamine receptor 1A (Homo sapiens, UniProt P08908); assay: Activity against 5HT1A receptor by Gi-[35S]GTP-gamma-S binding assay; format: functional
T2 sequence (P08908 whole entry): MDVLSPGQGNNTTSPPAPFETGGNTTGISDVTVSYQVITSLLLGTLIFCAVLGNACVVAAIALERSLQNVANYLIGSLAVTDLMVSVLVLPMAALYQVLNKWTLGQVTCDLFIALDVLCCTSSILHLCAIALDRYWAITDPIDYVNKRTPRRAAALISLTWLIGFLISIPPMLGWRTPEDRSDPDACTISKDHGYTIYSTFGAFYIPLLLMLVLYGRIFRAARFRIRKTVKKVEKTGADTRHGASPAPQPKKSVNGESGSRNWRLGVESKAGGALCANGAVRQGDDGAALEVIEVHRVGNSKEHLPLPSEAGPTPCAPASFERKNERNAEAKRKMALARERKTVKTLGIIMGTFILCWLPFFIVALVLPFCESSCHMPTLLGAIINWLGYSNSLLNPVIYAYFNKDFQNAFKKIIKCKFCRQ

[3] = Half life in human liver microsome at 5 uM; format: ADME; conditions: liver microsomes
[4] = target: T3, Adrenergic receptor alpha-1 (Rattus norvegicus) (UniProt P15823+P23944+P43140); assay: Displacement of [3H]prazosin from Adrenergic alpha-1 receptor in rat cerebral cortex cells at 1 uM; format: cell-based
[5] = Half life in human liver S9 fraction at 5 uM; format: ADME
[6] = target: T3, Adrenergic receptor alpha-1 (Rattus norvegicus); assay: Displacement of [3H]prazosin from Adrenergic alpha-1 receptor in rat cerebral cortex cells at 1 uM
[7] = target: T2, 5-hydroxytryptamine receptor 1A; assay: Displacement of [3H]8-OH-DPAT from human 5HT1A receptor in HEK293 cells
[8] = target: Voltage-gated inwardly rectifying potassium channel KCNH2 (Homo sapiens, UniProt Q12809); assay: Inhibition of hERG potassium channel in HEK293 cells by patch clamp assay
hERG (KCNH2) = hERG (KCNH2) (Homo sapiens, UniProt Q12809); assay: Inhibition of hERG potassium channel in HEK293 cells by patch clamp assay at 1 uM; conditions: HEK293 cells that express hERG
[9] = target: T4, Adrenergic receptor alpha-1 (Rattus norvegicus, UniProt P15823+P23944+P43140); assay: Displacement of [3H]prazosin from adrenergic alpha-1 receptor in rat cerebral cortex cells; format: cell-based
T4 sequence (P15823 whole entry): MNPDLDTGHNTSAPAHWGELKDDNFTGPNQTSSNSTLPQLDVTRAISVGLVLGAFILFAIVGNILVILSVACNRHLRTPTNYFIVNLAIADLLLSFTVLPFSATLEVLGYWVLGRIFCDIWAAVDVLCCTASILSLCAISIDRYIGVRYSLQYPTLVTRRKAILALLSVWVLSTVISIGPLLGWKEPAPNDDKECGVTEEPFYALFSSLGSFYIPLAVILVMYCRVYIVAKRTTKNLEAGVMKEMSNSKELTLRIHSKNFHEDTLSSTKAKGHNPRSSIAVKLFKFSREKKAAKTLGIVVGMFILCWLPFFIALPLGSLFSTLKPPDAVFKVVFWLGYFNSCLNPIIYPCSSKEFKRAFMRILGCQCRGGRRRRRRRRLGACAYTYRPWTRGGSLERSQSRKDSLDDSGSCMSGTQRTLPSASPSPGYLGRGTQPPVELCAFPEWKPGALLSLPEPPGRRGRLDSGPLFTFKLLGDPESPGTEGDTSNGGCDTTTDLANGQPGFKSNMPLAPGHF
T4 sequence (P23944 whole entry): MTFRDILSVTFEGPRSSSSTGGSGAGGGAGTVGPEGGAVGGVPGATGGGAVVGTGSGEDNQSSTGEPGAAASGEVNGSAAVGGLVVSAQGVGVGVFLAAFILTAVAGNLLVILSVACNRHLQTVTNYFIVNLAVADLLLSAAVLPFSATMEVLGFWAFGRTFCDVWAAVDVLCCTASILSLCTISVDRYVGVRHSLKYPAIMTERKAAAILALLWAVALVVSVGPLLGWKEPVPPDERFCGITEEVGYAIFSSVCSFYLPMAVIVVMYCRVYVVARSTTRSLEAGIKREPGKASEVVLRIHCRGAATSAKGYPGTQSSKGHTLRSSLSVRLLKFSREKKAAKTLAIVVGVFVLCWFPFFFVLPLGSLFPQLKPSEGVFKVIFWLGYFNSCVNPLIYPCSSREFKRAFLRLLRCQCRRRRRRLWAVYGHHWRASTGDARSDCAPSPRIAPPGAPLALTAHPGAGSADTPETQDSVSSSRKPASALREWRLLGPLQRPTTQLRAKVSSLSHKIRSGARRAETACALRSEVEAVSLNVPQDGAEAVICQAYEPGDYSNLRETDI
T4 sequence (P43140 whole entry): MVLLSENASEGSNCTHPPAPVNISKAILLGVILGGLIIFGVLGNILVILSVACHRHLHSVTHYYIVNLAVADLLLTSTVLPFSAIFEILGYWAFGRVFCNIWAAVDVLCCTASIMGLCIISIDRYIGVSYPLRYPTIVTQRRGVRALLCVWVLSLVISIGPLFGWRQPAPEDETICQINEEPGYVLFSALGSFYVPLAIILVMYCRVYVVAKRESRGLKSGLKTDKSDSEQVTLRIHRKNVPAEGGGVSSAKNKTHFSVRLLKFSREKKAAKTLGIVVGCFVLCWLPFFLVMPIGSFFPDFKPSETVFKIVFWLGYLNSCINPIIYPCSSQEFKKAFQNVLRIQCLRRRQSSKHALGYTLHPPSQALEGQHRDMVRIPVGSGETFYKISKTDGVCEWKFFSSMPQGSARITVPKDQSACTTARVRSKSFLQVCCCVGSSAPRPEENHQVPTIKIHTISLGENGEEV

[10] = Oral bioavailability in Sprague-Dawley rat at 3 mg/kg, po and 1 mg/kg, iv; format: ADME, organism-based; conditions: in vivo
[11] = Half life in Sprague-Dawley rat at 3 mg/kg, po; format: ADME, organism-based; parameters: dose 3 mg/kg, route oral; conditions: in vivo
D(2) dopamine receptor = D(2) dopamine receptor (Homo sapiens, UniProt P14416); assay: Binding affinity to D2 receptor by radioligand binding assay
[12] = Protein binding in human serum at 2 uM; format: ADME, organism-based; conditions: read-out: PPB (converted)
Cytochrome P450 1A2 = Cytochrome P450 1A2 (Homo sapiens, UniProt P05177); assay: Inhibition of human recombinant cytochrome P450 1A2; format: ADME; conditions: recombinant enzyme
Cytochrome P450 2D6 = Cytochrome P450 2D6 (Homo sapiens, UniProt P10635); assay: Inhibition of human recombinant cytochrome P450 2D6; format: ADME; conditions: recombinant enzyme
[13] = Cmax in Sprague-Dawley rat at 3 mg/kg, po; format: ADME, organism-based; parameters: dose 3 mg/kg, route oral; conditions: in vivo
Cytochrome P450 2C19 = Cytochrome P450 2C19 (Homo sapiens, UniProt P33261); assay: Inhibition of human recombinant cytochrome P450 2C19; format: ADME; conditions: recombinant enzyme
[14] = Oral bioavailability in Beagle dog at 3 mg/kg, po and 1 mg/kg, iv; format: ADME, organism-based, Canis lupus familiaris; conditions: in vivo
Cytochrome P450 3A4 = Cytochrome P450 3A4 (Homo sapiens, UniProt P08684); assay: Inhibition of human recombinant cytochrome P450 3A4; format: ADME; conditions: recombinant enzyme
Cytochrome P450 2C9 = Cytochrome P450 2C9 (Homo sapiens, UniProt P11712); assay: Inhibition of human recombinant cytochrome P450 2C9; format: ADME; conditions: recombinant enzyme
[15] = Half life in Beagle dog at 3 mg/kg, po; format: ADME, organism-based, Canis lupus familiaris; parameters: dose 3 mg/kg, route oral; conditions: in vivo
[16] = Cmax in Beagle dog at 3 mg/kg, po; format: ADME, organism-based, Canis lupus familiaris; parameters: dose 3 mg/kg, route oral; conditions: in vivo

Cytochrome P450 3A4, sequence (P08684 whole entry): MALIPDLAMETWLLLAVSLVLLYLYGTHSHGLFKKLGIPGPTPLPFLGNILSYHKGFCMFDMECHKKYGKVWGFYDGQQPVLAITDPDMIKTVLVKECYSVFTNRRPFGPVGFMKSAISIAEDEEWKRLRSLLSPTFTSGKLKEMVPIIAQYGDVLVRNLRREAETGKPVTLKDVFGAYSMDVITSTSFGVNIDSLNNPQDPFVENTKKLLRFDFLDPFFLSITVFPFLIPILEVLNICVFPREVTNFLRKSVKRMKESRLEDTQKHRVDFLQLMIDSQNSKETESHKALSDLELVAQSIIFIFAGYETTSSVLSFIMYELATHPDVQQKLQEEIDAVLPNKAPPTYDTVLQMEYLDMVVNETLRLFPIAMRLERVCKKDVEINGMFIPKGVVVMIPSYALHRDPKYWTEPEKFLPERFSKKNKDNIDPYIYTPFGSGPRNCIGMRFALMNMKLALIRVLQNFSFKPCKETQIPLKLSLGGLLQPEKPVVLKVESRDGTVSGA
Cytochrome P450 2D6, sequence (P10635 whole entry): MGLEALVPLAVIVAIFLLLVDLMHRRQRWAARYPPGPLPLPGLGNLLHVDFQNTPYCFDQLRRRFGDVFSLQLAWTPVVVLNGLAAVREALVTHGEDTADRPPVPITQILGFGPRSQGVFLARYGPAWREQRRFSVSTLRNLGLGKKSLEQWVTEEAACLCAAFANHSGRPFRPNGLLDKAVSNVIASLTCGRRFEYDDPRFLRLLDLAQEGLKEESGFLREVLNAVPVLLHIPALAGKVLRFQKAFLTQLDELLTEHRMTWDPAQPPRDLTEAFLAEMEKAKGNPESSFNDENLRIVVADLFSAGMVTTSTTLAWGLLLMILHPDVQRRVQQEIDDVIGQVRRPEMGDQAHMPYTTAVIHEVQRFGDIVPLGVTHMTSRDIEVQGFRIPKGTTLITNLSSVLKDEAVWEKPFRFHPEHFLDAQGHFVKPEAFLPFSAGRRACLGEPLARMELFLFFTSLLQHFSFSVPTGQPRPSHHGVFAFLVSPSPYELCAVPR
Voltage-gated inwardly rectifying potassium channel KCNH2, sequence (Q12809 whole entry): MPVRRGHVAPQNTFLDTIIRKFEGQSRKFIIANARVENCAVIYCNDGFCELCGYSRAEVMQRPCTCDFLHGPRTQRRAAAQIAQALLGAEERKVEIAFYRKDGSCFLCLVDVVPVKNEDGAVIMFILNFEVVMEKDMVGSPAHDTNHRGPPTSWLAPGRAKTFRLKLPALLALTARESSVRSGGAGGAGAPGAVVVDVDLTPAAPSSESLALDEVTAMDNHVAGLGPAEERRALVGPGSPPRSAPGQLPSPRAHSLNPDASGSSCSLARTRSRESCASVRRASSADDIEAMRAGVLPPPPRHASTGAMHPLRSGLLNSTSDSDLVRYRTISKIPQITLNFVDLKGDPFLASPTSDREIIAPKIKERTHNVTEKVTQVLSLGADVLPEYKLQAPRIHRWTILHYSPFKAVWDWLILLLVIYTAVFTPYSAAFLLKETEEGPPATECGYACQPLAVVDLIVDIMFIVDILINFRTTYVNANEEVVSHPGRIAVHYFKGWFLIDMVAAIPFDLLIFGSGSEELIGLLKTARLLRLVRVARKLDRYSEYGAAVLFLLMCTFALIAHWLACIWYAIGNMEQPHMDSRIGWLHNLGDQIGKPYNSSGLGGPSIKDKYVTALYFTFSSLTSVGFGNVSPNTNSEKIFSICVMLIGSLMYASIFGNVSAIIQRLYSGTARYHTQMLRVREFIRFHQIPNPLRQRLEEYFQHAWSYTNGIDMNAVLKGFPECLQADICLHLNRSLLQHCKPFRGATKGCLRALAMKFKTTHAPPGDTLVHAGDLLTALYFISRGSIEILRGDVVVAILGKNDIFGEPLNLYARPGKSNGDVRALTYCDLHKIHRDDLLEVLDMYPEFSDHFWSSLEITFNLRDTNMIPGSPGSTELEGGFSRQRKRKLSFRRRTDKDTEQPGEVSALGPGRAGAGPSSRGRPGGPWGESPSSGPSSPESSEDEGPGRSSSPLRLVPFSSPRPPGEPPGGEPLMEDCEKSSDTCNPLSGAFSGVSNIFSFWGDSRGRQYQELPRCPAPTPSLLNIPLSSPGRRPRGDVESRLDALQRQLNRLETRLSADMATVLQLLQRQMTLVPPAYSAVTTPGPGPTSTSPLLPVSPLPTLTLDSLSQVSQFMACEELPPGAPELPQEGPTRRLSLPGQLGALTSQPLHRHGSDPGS
hERG (KCNH2), sequence (Q12809 whole entry): as above
Cytochrome P450 2C9, sequence (P11712 whole entry): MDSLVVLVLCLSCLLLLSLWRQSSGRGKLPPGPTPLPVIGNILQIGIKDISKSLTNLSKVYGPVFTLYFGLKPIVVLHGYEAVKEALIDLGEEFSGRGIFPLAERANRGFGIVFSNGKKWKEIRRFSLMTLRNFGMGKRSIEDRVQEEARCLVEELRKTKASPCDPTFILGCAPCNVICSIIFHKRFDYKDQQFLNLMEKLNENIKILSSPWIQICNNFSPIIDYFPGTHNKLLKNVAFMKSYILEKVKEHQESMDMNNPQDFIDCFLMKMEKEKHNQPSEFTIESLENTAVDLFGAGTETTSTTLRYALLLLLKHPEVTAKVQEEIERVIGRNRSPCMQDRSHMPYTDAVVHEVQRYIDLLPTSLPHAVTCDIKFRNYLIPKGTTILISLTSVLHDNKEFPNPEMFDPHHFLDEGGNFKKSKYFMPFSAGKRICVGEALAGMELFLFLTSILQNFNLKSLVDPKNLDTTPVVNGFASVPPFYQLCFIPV
D(2) dopamine receptor, sequence (P14416 whole entry): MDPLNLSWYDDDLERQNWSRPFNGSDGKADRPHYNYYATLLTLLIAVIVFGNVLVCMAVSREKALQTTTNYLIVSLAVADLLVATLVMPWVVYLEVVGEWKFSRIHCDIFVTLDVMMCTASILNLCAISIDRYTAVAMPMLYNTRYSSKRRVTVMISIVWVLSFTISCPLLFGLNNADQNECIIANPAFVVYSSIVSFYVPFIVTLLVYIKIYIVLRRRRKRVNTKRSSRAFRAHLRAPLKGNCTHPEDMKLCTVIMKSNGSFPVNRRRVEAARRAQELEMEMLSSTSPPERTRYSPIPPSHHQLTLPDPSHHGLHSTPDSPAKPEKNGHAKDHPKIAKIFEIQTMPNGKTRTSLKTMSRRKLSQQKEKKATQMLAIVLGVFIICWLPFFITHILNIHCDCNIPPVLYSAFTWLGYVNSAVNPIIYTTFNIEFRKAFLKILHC
Cytochrome P450 2C19, sequence (P33261 whole entry): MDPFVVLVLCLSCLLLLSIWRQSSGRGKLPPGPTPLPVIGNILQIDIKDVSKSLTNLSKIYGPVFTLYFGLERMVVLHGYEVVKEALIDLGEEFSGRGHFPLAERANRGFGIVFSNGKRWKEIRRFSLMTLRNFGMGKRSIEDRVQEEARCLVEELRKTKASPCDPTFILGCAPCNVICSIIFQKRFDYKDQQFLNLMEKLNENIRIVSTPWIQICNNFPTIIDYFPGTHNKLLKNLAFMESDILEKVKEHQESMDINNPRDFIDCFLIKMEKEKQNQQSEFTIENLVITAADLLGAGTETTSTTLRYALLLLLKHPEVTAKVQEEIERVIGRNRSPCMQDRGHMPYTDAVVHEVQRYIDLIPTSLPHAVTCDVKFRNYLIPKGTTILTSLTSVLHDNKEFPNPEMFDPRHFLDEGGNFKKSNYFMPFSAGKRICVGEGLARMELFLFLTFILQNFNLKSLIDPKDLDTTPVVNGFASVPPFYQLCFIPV

SMILES | Activity [1] [%] | half-life at 5 µM [3] [h] | Activity [4] [%] | Ki [7] [nM] | also measured
CC(=O)Nc1cccc(N2CCN(CCCCN(C)S(=O)(=O)CC3CCCCC3)CC2)c1 | 47 | 0.2 | 37 |  | EC50 [2]: 3.6 nM; half-life at 5 µM [5]: 1.08 h; Activity [6]: 37%
CC(=O)Nc1cccc(N2CCN(CCCCN(C)S(=O)(=O)CC(C)C)CC2)c1 | 16 | > 0.75 | 27 | 9.7 | EC50 [2]: 32 nM; IC50 [8]: 2200 nM; inhibition at 1 µM (hERG (KCNH2)): 31%; Activity [6]: 27%
Cc1ccc(S(=O)(=O)NCCCCN2CCN(c3cccc(NS(=O)(=O)C(C)C)c3)CC2)cc1 | 12 |  | 47 | 47 | 
CCC(=O)Nc1cccc(N2CCN(CCCCNS(=O)(=O)c3ccc(C)cc3)CC2)c1 | 31 |  | 0 | 426 | 
Cc1ccc(S(=O)(=O)NCCCCN2CCN(c3cccc(NC(=O)C4CC4)c3)CC2)cc1 | 10 |  | < 10 | 22 | 
CC(=O)Nc1cccc(N2CCN(CCCCNS(=O)(=O)c3ccc(C)cc3)CC2)c1 | 43 | 0.65 | 22 |  | Ki [9]: > 3500 nM; bioavailability [10]: 15%; half-life [11]: 3.3 h
CC(=O)Nc1cccc(N2CCN(CC3CCN(S(=O)(=O)CC4CCCCC4)CC3)CC2)c1 | 13 |  | < 10 |  | half-life [11]: 0.75 h
Cc1ccc(S(=O)(=O)NCCCCN2CCN(c3cccc(NC(=O)C(C)C)c3)CC2)cc1 | < 10 |  | 15 | 78 | 
CC(=O)Nc1cccc(N2CCN(CCCCNS(=O)(=O)CC(C)C)CC2)c1 | 0 | > 1.5 | 5 | 9.2 | Ki (D(2) dopamine receptor): > 5000 nM; fraction unbound at 2 µM [12]: 0.43; Inhibition (Cytochrome P450 1A2): Not Active; Ki [9]: > 5000 nM; Inhibition (Cytochrome P450 2D6): Not Active; bioavailability [10]: 50%; EC50 [2]: 60 nM; Cmax [13]: 350 ng/mL; Inhibition (Cytochrome P450 2C19): Not Active; bioavailability [14]: > 80%; Inhibition (Cytochrome P450 3A4): Not Active; Inhibition (Cytochrome P450 2C9): Not Active; half-life [15]: 2.4 h; Cmax [16]: 600 ng/mL; half-life [11]: 3.5 h
CC(=O)Nc1cccc(N2CCN(CC3CCN(S(=O)(=O)C(C)C)CC3)CC2)c1 | < 10 |  | < 10 |  | 
CC(=O)Nc1cccc(N2CCN(CC3CCN(S(=O)(=O)c4ccc(F)cc4)CC3)CC2)c1 | < 10 |  | 49 |  | 
CC(=O)Nc1cccc(N2CCN(CCCCNS(=O)(=O)C(C)C)CC2)c1 | < 10 |  | < 10 |  | 
